According to patent US20250327028A1, “ENGINEERED PLATELETS AS TARGETED PROTEIN DEGRADERS” (Wisconsin Alumni Research Foundation, priority 2024, published 2025):

What was measured:
BRD4 [1] = molecular target: T1, BRD4 (Mus musculus, UniProt Q9ESU6); experiment: Immunoblot analysis of BRD4 degradation in 4T1 cells after free HAC treatment; format: cell-based, murine; details: 4T1 cells
T1 construct: endogenous in cells; host or cells: 4T1
Description: (§1) Immunoblot analysis: Immunoblot analysis was used to evaluate the expression of BRD4, HSP90, HSP90a, and PD-L1 in 4T1, WT MDA-MB-231, HSP90α-KO MDA-MB-231 or PEA-10 cells after various treatments and also served as the detection method for IP or co-IP experiments. The procedures for preparing IP or co-IP samples were indicated in the relevant experimental parts.
(§2) Sample preparation for various cancer cells after free HAC treatment: Various cells, including 4T1, WT MDA-MB-231, HSP90α-KO MDA-MB-231, or PEA-10 cells, were seeded in 6-well culture plates with a density of 5×10^4 cells in each well and cultured for 24 h. Then, if HAI pretreatment was performed, the cells were incubated in the HAI-containing blank medium at different concentrations for 2 h and washed with PBS twice before the following treatments. The medium in the corresponding wells was replaced with 1 mL of blank medium containing the DMSO vehicle, HACs, or the combinations of various free ligands at the predetermined concentrations. After incubation for the indicated time points, cells were washed with PBS and lysed on ice with the relevant lysis buffer containing PMSF (1 mM) and the phosphatase inhibitor cocktail for 30 min. As for the conditioned medium (CM), the culturing complete medium of the corresponding cancer cells in each well was collected after 24-h incubation and subjected to centrifugation at 2000 rpm for 5 min to obtain the supernatant. The filtrate of the supernatants was collected following filtration over a 0.45 μm filter, serving as the CM. Regarding the cell samples for BRD4 detection, the lysis buffer containing HEPES-KOH (pH=7.5, 10 mM), NaCl (500 mM), EDTA (5 mM), NP-40 (1%), and SDS (0.1%) was used with the indicated PMSF and phosphatase inhibitor cocktail. As for PD-L1 detection, RIPA buffer (Thermo Fisher Scientific/J63306.AP) was used with the indicated PMSF and phosphatase inhibitor cocktail.
General procedures for immunoblot analysis: After a 30-min lysis, the lysates were centrifuged at 10,000 g for 10 minutes at 4° C., and the corresponding supernatants were collected, followed by quantification of the total proteins in the supernatant through the BCA assay. Afterward, the proteins in the supernatant were mixed with the loading buffer and heated at 95° C. for 15 min. Equal amounts of proteins from different samples ([…]) were loaded into the Bis-Tris gel formulated with Bis-Tis buffer, 30% acrylamide/Bis, 10% ammonium persulfate (APS) solution, and TEMED. The separated proteins were transferred to polyvinylidene fluoride (PVDF) membranes before the membranes were blocked with 5% nonfat milk in PBS-T. Next, the PVDF membranes were incubated with primary antibodies overnight at 4° C., if necessary, followed by the incubation with the goat-anti-rabbit IgG H & L (HRP) secondary antibodies at room temperature for 2 h. Finally, the bands were treated with electrochemiluminescence (ECL) western blot substrate, detected by the iBright™ imaging system and quantified with ImageJ software. 8% Bis-Tris gels were used for BRD4 detection, and 10% gels were adopted to analyze PD-L1.

WT MDA-MB-231 cells = experiment: In-gel fluorescence detection of NA-647 internalization in WT MDA-MB-231 cells; format: cell-based, human; details: WT MDA-MB-231, 2-h HAI at various concentrations prior to HAC-B 5 μM 4 h
Method: In-gel fluorescence detection: In-gel fluorescence was mainly used to investigate the internalization of NeutrAvidin™_647 in HAC-B-treated cancer cells.
Sample preparation: 4T1 or WT MDA-MB-231 cells were seeded in 6-well culture plates with a density of 5×10^4 cells in each well and cultured for 24 h. If HAI pretreatment was performed, the cells were incubated in the HAI-containing blank medium at different concentrations for 2 h and washed with PBS twice before the following treatments. Then, the cells were treated with free HAC-B or the combinations of various ligands at the indicated concentrations for the predetermined time points. Next, the drug-containing medium was removed, and PBS was used to wash the cells twice, followed by incubating the cells in the blank medium containing NeutrAvidin™ DyLight™ 650 (NA-647, Invitrogen/84607) at 0.5 μM for 1 h. Finally, the cells were washed with PBS and lysed on ice with the RIPA buffer containing PMSF (1 mM) and the phosphatase inhibitor cocktail for 30 min. A s for the 4T1 cells cotreated with NA-647 and HAC-B, the cells after 24-h incubation were treated with the blank medium containing NA-647 at 0.5 μM and HAC-B at various concentrations for 2 h before cell lysis.
In-gel fluorescence imaging: After 30-min lysis, the lysates were centrifuged at 10,000 g for 10 minutes at 4° C., and the corresponding supernatants were collected, followed by quantification of the total proteins in the supernatant through the BCA assay. Afterward, the proteins in the supernatant were mixed with ¼ volume of 5× sample buffer formulated by Tris-HCl (pH 6.8, 312.5 mM), sucrose (25%), SDS (10%), bromophenol blue (0.025%), and dithiothreitol (DTT, 250 mM). After incubation for 1 h at room temperature, equal amounts of proteins from different samples ([…] per lane) were loaded into the 12% Bis-Tris gel. After the proteins were separated, the gels were subjected to fluorescence imaging with the ChemiDoc™ MP imaging system (Bio-Rad).

PD-L1 = molecular target: T2, PD-L1 (Mus musculus, UniProt Q9EP73); experiment: Immunoblot analysis of PD-L1 degradation in 4T1 cells after eDePLT treatment; format: cell-based, murine; details: 2-h HAI pretreatment, 1×10^8 eDePLTs 8 h
T2 construct: endogenous in cells; host or cells: 4T1
T2 sequence (Q9EP73 19-290): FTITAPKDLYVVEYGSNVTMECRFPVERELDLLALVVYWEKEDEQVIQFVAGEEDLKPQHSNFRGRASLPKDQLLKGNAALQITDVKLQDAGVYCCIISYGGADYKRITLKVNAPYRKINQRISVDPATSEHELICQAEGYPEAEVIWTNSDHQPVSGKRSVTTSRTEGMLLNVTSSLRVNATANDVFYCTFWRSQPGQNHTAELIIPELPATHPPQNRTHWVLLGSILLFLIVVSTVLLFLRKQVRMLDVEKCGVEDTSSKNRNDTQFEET
Method: as §1
(§3) Sample preparation for 4T1 cells after DePLT treatment: 4T1 cells were seeded in 6-well culture plates with a density 5×10^4 cells in each well and cultured for 24 h. The engineered platelets, including iDePLT and eDePLT, were generated by incubating the fresh platelets in PBS containing iHAC or eHAC at 20 μM for 2 h. The fresh nPLT was used as the control. Then, if HAI pretreatment was performed, the cells were incubated in the HAI-containing blank medium at different concentrations for 2 h and washed with PBS twice before the following treatments. […]
(§4) General procedures for immunoblot analysis: After a 30-min lysis, the lysates were centrifuged at 10,000 g for 10 minutes at 4° C., and the corresponding supernatants were collected, followed by quantification of the total proteins in the supernatant through the BCA assay. […] Finally, the bands were treated with electrochemiluminescence (ECL) western blot substrate, detected by the iBright™ imaging system and quantified with ImageJ software. […]

BRD4 [2] = molecular target: T1, BRD4; experiment: Immunoblot analysis of BRD4 degradation in 4T1 cells after DePLT or PMP treatment; format: cell-based, murine; details: 2-h HAI pretreatment, 1×10^8 iDePLTs 12 h
Method: as §1, §3, §4

BRD4 [3] = molecular target: T3, BRD4 (Homo sapiens, UniProt O60885); experiment: Immunoblot analysis of BRD4 degradation in WT MDA-MB-231 cells after free HAC treatment; format: cell-based; details: lower or higher effective concentrations, 12 h
T3 construct: endogenous in cells; host or cells: WT MDA-MB-231 (ATCC)
Description: as §1
as §2, with “Regarding the cell samples for BRD4 detection, the lysis buffer containing HEPES-KOH (pH=7.5, 10 mM), NaCl (500 mM), EDTA (5 mM), NP-40 (1%), and SDS (0.1%) was used with the indicated PMSF and phosphatase inhibitor cocktail. As for PD-L1 detection, RIPA buffer (Thermo Fisher Scientific/J63306.AP) was used with the indicated PMSF and phosphatase inhibitor cocktail.” left out
as §4

BRD4 degradation compared to iHAC (BRD4 [1]; lower or higher effective concentrations, 12 h)	BRD4 degradation compared to iHAC (BRD4 [3])	SMILES	BRD4 degradation by iHAC after HAI pretreatment (BRD4 [1]; 2-h HAI pretreatment at various concentrations, then iHAC 10 μM 12 h)	NA-647 uptake by HAC-B after HAI preincubation (WT MDA-MB-231 cells)	PD-L1 degradation by eDePLT after HAI pretreatment of target cells (PD-L1)	BRD4 downregulation by iDePLT after HAI pretreatment of target cells (BRD4 [2])
–	–	Nc1ncnc2c1nc(Sc1cc3c(cc1I)OCO3)n2CCCNCc1cccc(S(=O)(=O)F)c1 [HAI, 3-(((3-(6-amino-8-((6-iodobenzo[d][1,3]dioxol-5-yl)thio)-9H-purin-9-yl)propyl)amino)methyl)benzenesulfonyl fluoride]	inferior BRD4 degradation efficacy	largely compromised NA-647 uptake	failed to rescue the PD-L1 degradation	failed to relieve BRD4 downregulation
almost no substantial BRD4 degradation	almost no substantial BRD4 degradation	Cc1sc2c(c1C)C(c1ccc(Cl)cc1)=N[C@H](CC(=O)NCc1cn(CCCC(=O)N(CC#N)S(=O)(=O)c3ccc(C(=O)NCCCn4c(Sc5cc6c(cc5I)OCO6)nc5c(N)ncnc54)cc3)nn1)c1nnc(C)n1-2 [iHACepi, (R)—N-(3-(6-amino-8-((6-iodobenzo[d][1,3]dioxol-5-yl)thio)-9H-purin-9-yl)propyl)-4-(N-(4-(4-((2-(4-(4-chlorophenyl)-2,3,9-trimethyl-6H-thieno[3,2-f][1,2,4]triazolo[4,3-a][1,4]diazepin-6-yl)acetamido)methyl)-1H-1,2,3-triazol-1-yl)butanoyl)-N-(cyanomethyl)sulfamoyl)benzamide]	–	–	–	–
